Data reported in US10308660B2, “Compounds and compositions for inhibiting the activity of SHP2” (Novartis AG, priority 2015, dated 2019).

The compounds below were run against SHP2 (Homo sapiens (Human), UniProt Q06124) (assay: SHP2 allosteric inhibition assay (DiFMUP prompt fluorescence)). Details: 0.5 nM SHP2 activated with 0.5 μM peptide IRS1_pY1172(dPEG8)pY1222; substrate DiFMUP; 25° C.
Format: biochemical

Compound | IC50 [nM]
N[C@@H]1CCCC12CCN(c1ncc(-c3cccc(Cl)c3Cl)c(=O)[nH]1)CC2 [Example 202] | 782
C[C@@H]1OCC2(CCN(c3nc(N)c(-c4ccc(OCC5CC5)cc4)c(=O)n3C)CC2)[C@@H]1N [Example 147] | 39
Cn1c(N2CCC(C)(CN)CC2)nc(N)c(Sc2ccccc2Cl)c1=O [Example 6] | 286
C[C@H]1CC2(CCN(c3nc(N)c(Sc4cccnc4C(F)(F)F)c(=O)n3C)CC2)[C@H](N)[C@@H]1C(F)(F)F (single isomer, unassigned) [Example 65] | 61
C[C@@H]1OCC2(CCN(c3nc(N)c(-c4ccccc4)c(=O)n3C)CC2)[C@@H]1N [Example 138] | 24
C[C@@H]1OCC2(CCN(c3ncc(Sc4ccnc(N)c4Cl)c(=O)n3C)CC2)[C@@H]1N [Example 113] | 35
Cn1c(N2CCC3(CC2)C[C@H](F)C[C@H]3N)nc(N)c(Sc2ccnc(N)c2Cl)c1=O [Example 36] | 69
C[C@@H]1OCC2(CCN(c3nc(N)c(-c4ccc(C5CC5)cc4)c(=O)n3C)CC2)[C@@H]1N [Example 160] | 63
Cc1ncccc1-c1c(N)nc(N2CCC3(CC2)CO[C@@H](C)[C@H]3N)n(C)c1=O [Example 183] | 1590
C[C@@H]1OCC2(CCN(c3ncc(Sc4cc(N)nc(Cl)c4Cl)c(=O)n3C)CC2)[C@@H]1N [Example 112] | 19
C[C@@H]1OCC2(CCN(c3nc(N)c(-c4ccc(C5CCCCC5)cc4)c(=O)n3C)CC2)[C@@H]1N [Example 163] | 73
Cn1c(N2CCC3(CC2)CC(F)(F)C[C@H]3N)nc(N)c(Sc2ccnc(N)c2Cl)c1=O [Example 42] | 14
C[C@H]1CC2(CCN(c3nc(N)c(Sc4cccnc4C(F)(F)F)c(=O)n3C)CC2)[C@@H](N)[C@@H]1C(F)(F)F (single isomer, unassigned) [Example 64] | 856
Cn1c(N2CCC(C)(CN)CC2)nc(N)c(Sc2ccccc2C(F)(F)F)c1=O [Example 49] | 74
C[C@@H]1OCC2(CCN(c3cc(N)c(Sc4cccnc4C(F)(F)F)c(=O)[nH]3)CC2)[C@@H]1N [Example 88, 4-amino-6-((3S,4S)-4-amino-3-methyl-2-oxa-8-azaspiro[4.5]decan-8-yl)-3-((2-(trifluoromethyl)pyridin-3-yl)thio)pyridin-2(1H)-one] | 42
CCOc1nccc(Sc2cnc(N3CCC4(CC3)CO[C@@H](C)[C@H]4N)[nH]c2=O)c1Cl [Example 95] | 23

Compound | IC50 [nM]
C[C@@H]1CC2(CCN(c3nc(N)c(Sc4cccnc4C(F)(F)F)c(=O)n3C)CC2)[C@H](N)C1(F)F [Example 33] | 40
C[C@@H]1OCC2(CCN(c3ncc(Sc4ccnc(NC5CC5)c4Cl)c(=O)n3C)CC2)[C@@H]1N [Example 107] | 146
Cn1c(N2CCC3(CC2)COC[C@H]3N)nc(N)c(-c2ccccc2)c1=O [Example 189] | 41
C[C@H]1C[C@@H](N)C2(CCN(c3nc(N)c(-c4cccc(Cl)c4Cl)c(=O)n3C)CC2)C1 [Example 129] | 14
C[C@@H]1OCC2(CCN(c3nc(N)c(-c4cc(Cl)cc(Cl)c4)c(=O)n3C)CC2)[C@@H]1N [Example 179] | 421
C[C@H]1C[C@@H](N)C2(CCN(c3nc(N)c(Sc4cc(N)nc(Cl)c4Cl)c(=O)n3C)CC2)C1 [Example 70] | 11
C[C@@H]1OCC2(CCN(c3ncc(Sc4cccc(Cl)c4Cl)c(=O)n3C)CC2)[C@@H]1N [Example 103] | 15
C[C@@H]1OCC2(CCN(c3nc(N)c(-c4ccccn4)c(=O)n3C)CC2)[C@@H]1N [Example 182] | 1060
Cn1c(N2CCC(C)(CN)CC2)nc(N)c(Sc2ccc(Cl)cc2Cl)c1=O [Example 56] | 170
COc1cccc(Sc2c(N)nc(N3CCC4(CC3)CO[C@@H](C)[C@H]4N)n(C)c2=O)c1Cl [Example 20] | 17
C[C@H]1C[C@@H](N)C2(CCN(c3nc(N)c(-c4cccc(Cl)c4)c(=O)n3C)CC2)C1 [Example 125] | 12
C[C@@H]1OCC2(CCN(c3nc(N)c(-c4ccc(-c5ccccc5)cc4)c(=O)n3C)CC2)[C@@H]1N [Example 168] | 107
C[C@H]1C[C@@H](N)C2(CCN(c3nc(N)c(Sc4ccncc4C(F)(F)F)c(=O)n3C)CC2)C1 [Example 75] | 18
Cn1c(N2CCC3(CCC[C@H]3N)CC2)nc(N)c(Sc2cccnc2C(F)(F)F)c1=O [Example 14] | 98
C[C@H]1C[C@@H](N)C2(CCN(c3ncc(Sc4cc(N)ncc4Cl)c(=O)n3C)CC2)C1 [Example 110] | 16
CC(C)c1ccc(-c2c(N)nc(N3CCC4(CC3)CO[C@@H](C)[C@H]4N)n(C)c2=O)cc1 [Example 131] | 16

More lines, now with the values ahead:

IC50 [nM] | Compound
92 | N[C@@H]1CCCC12CCN(c1ncc(Sc3cccnc3C(F)(F)F)c(=O)[nH]1)CC2 [Example 92]
21 | Cn1c(N2CCC3(CCC[C@H]3N)CC2)nc(N)c(-c2cccc(Cl)c2Cl)c1=O [Example 192]
108 | CC1(CN)CCN(c2ccc(Sc3cccc(Cl)c3Cl)c(=O)[nH]2)CC1 [Example 118, 6-(4-(aminomethyl)-4-methylpiperidin-1-yl)-3-((2,3-dichlorophenyl)thio)pyridin-2(1H)-one]
88 | C[C@@H]1OCC2(CCN(c3nc(N)c(-c4ccc(N(C)C)cc4)c(=O)n3C)CC2)[C@@H]1N [Example 166]
178 | CC1(CN)CCN(c2ncc(Sc3ccccc3Cl)c(=O)[nH]2)CC1 [Example 94]
25 | C[C@@H]1OCC2(CCN(c3nc(N)c(Sc4ccccc4Cl)c(=O)n3C)CC2)[C@@H]1N [Example 27]
63 | Cn1c(N2CCC3(CC2)C[C@@H](C(F)(F)F)C[C@H]3N)nc(N)c(-c2ccccc2)c1=O [Example 161]
47 | COc1cccc(Sc2c(N)nc(N3CCC(C)(CN)CC3)n(C)c2=O)c1Cl [Example 9]
25 | C[C@H]1C[C@@H](N)C2(CCN(c3nc(N)c(-c4ccccc4)c(=O)n3C)CC2)C1 [Example 140]
840 | COc1ccccc1-c1c(N)nc(N2CCC3(CC2)CO[C@@H](C)[C@H]3N)n(C)c1=O [Example 181]
39 | COc1nccc(Sc2c(N)nc(N3CCC4(CC3)C[C@@H](C)C[C@H]4N)n(C)c2=O)c1Cl [Example 77]
15 | C[C@@H]1CC2(CCN(c3nc(N)c(-c4ccccc4)c(=O)n3C)CC2)[C@H](N)[C@H]1F [Example 188]
14 | Cc1ccc(-c2c(N)nc(N3CCC4(CC3)CO[C@@H](C)[C@H]4N)n(C)c2=O)cc1Cl [Example 123, 6-amino-2-((3S,4S)-4-amino-3-methyl-2-oxa-8-azaspiro[4.5]decan-8-yl)-5-(3-chloro-4-methylphenyl)-3-methylpyrimidin-4(3H)-one]
22 | CC[C@@H]1OCC2(CCN(c3nc(N)c(Sc4ccnc(C)c4Cl)c(=O)n3C)CC2)[C@@H]1N [Example 86]
20 | C[C@@H]1OCC2(CCN(c3nc(N)c(-c4ccc(Cl)cc4)c(=O)n3C)CC2)[C@@H]1N [Example 136]
309 | C[C@@H]1OCC2(CCN(c3nc(N)c(-c4ccc(Cl)c(Cl)c4)c(=O)n3C)CC2)[C@@H]1N [Example 177]
279 | Cn1c(N2CCC(C)(CN)CC2)nc(N)c(Sc2cccc3cccnc23)c1=O [Example 57]
25 | C[C@H]1C[C@@H](N)C2(CCN(c3nc(N)c(Sc4ccnc(N5CCCC5)c4Cl)c(=O)n3C)CC2)C1 [Example 62]
